Experimental findings from a melting point compilation (Tetko et al.; mined from patent text by program, amines drawn as free bases though some values may be those of a salt) are described below.

SMILES strings stand for the structures. A value given as a limit tells only on which side of the number the result lay.

As a reminder, the melting point is the temperature of the solid-liquid transition. On to `CCOC(=O)c1cc2cc(C3=C(c4cnc5[nH]cc(C(=O)C(C)(C)C)c5n4)CCC3)ccc2[nH]1`, for which the melting point was 278 to 280 °C.
For `O=C1CCC(c2ccc(-n3ccnc3)nc2)=NN1` the value was 276 to 278 °C; for `CCN(CC)CC1CCCCN1CCCNC(=O)N1c2ccccc2C(=O)Nc2cccnc21` (centres undefined), 160 to 161 °C; for `CC(C)(C)OC(=O)N1CC=C(c2ccc(Br)cc2)CC1`, 68 to 70 °C.
The figure for `Cc1nnsc1C(=O)NCCc1ccccc1` is 64 to 68 °C; for `COC(=N)NC(=O)NC(C)C` it is 64 to 67 °C; for `C=C(COc1ccccc1C=O)C(=O)OC` it is 50 to 52 °C.
The figure for `COC(=O)Nc1nc2cc(C(N)c3ccccc3)ccc2[nH]1` (centres undefined) is more than 232 °C.
Compound `CCCc1nc2c(N)nc3cc(-c4cccc(NC(C)=O)c4)ccc3c2s1` returned a melting point of 173 to 176 °C.
The figure for `COc1ccccc1[C@H](c1cccc2ccccc12)[C@@](C)(C#N)C(=O)N1CCN(c2cccc(C)c2)CC1` is 104 to 105 °C; for `CCOC=C(C(=O)CCl)C(=O)OCC` it is 86.5 °C.
`CC(C)(C)c1ccc(C=NOCCOc2ccc(C(=O)O)c(OCc3ccc(C(F)(F)F)cc3)c2)cc1` gave a melting point of 164 to 165 °C.
For `CC(=O)OCC1OC(n2c(Br)c(C=O)c3cc(Cl)c(Cl)cc32)C(O)C1O` (centres undefined) the value was 159 to 160 °C; for `O=C(NCc1ccn(C2=CC3=C(CC2)CCc2[nH]c(=O)c(=O)[nH]c23)c1)Nc1ccccc1`, more than 240 °C; for `Clc1ccc(C(Br)C(Br)c2ncon2)cc1` (centres undefined), 141 to 142 °C.
For `O=C(Nc1cccc(C(F)(F)F)c1)N1CCc2cc(Oc3cc(Cl)ncn3)ccc21`, the melting point came out at 181 °C.
Compound `COC(=O)c1sc(S)c(Cl)c1O` had a melting point of 48 to 49 °C.
In turn, `CC1(C)CSSC[C@@H](C(=O)O)NC1=O` displayed a melting point of 160 to 162 °C.
The compound `ClCSc1c(Cl)c(Cl)cc(Cl)c1Cl` gave a melting point of 81 to 82 °C.
For `COCCNc1nc(Cc2ccc(OC)c(OC)c2)nc2sc(C#N)c(C)c12` the value was 94 to 97 °C.
For `CCOc1ccc(-c2nc(-c3ccc(O)c(C(=O)O)n3)cs2)cc1OCC` the value was 161 to 162 °C.
The figure for `FC(F)(F)c1cc2[nH]c(N3CCN(c4ncccc4Cl)CC3)nc2cc1Cl` is 209 to 211 °C.
In turn, `COCOc1cc(OC)ccc1C(=O)O` came in with a melting point of 96 to 97 °C.
Regarding `COC(=O)c1cc(C(=O)OC)n(C(c2ccccc2)(c2ccccc2)c2ccccc2)n1`, the melting point was 212 to 214 °C.
Turning to `COc1cc2c(cc1-c1ncco1)-c1c(-c3cccs3)c3c(n1CC2)C(=O)N(C(C)(C)C)CCC3`, the melting point lay within 230 to 231 °C.
For `COc1ccc(CCNC(=O)OC(C)(C)C)cc1OC` the value was 63 to 67 °C.
The figure for `CCCCC(CC)C(=O)NCCCCCCCCCCCOCC(O)CNCCO` (centres undefined) is 76.1 to 77.3 °C.
The figure for `Cc1cc2oc(=O)c3c(c2cc1[N+](=O)[O-])CCNC3` is 197 to 199 °C.
Take `CCCCNC(=O)OCCCc1ccc(OCCOC)cc1Oc1ncc(C(F)(F)F)cc1Cl`: the melting point fell in the range of 91.7 to 91.8 °C.
For `O=C(Cc1cccc(Br)c1)Nc1ccc(Sc2c(O)c3c(Cl)cc(Cl)cc3[nH]c2=O)cc1` the value was 292 to 296 °C; for `O=C(c1cccnc1)C(Cc1ccc(F)cc1)c1ccccc1` (centres undefined), 100 to 102 °C; for `Cc1ccc(N=NN2C(C)(C)CC(O)CC2(C)C)cc1`, 85 to 86 °C.
On to `Cc1ccc(S(=O)(=O)Nc2ccc(/C(CN3CCN(C)CC3)=N/O)cc2)cc1`, for which the melting point was 192 to 193 °C.
For `COc1cc2c(c(Br)c1OC(C)=O)Sc1cc(F)ccc1N2` the value was 224 to 226 °C; for `NC(=O)N1c2ccccc2CC(=NNc2ccccc2)c2ccccc21`, 220 to 221 °C.
In turn, `COC(=O)C[C@@H](CC(=O)C=Cc1c(-c2ccc(F)cc2)c(-c2ccccc2)c(C(=O)NCc2ccc(F)cc2)n1C(C)C)O[Si](C)(C)C(C)(C)C` displayed a melting point of 62 to 63 °C.
For `N#Cc1cccc(CSc2nnc(-c3ccn4ncnc4c3)o2)c1` the value was 196 to 197 °C.
`Cc1nc(N2CCc3nc(N)sc3CC2)c([N+](=O)[O-])c(=O)[nH]1` showed a melting point of more than 200 °C.
The figure for `FC(F)(F)c1ccc2c(c1)ncn2-c1cccc(I)c1` is 86 to 87 °C; for `CCOC(=O)NCCN1c2ccccc2N2CCc3cccc(c32)C1C` (centres undefined) it is 94 to 96 °C.
`CC(=O)NC[C@H]1CN(c2ccc(N3CCC(F)(CN)CC3)c(F)c2)C(=O)O1` came in with a melting point of 152 to 155 °C.
For the compound `Cc1cccc(C(=O)Nc2c[nH]nc2C(=O)NCCF)n1`, the melting point is 220 to 221 °C.
`CCCC(CCC)N1Cc2c(C(=O)O)cc(N(C)S(C)(=O)=O)cc2C1=O`: the melting point turned out to be 206 °C.
The figure for `COc1cc2nc3ccc(SC)cc3sc-2cc1=O` is 222 to 224 °C; for `COc1ccc2c(=O)cc(SC)sc2c1` it is 133 to 135 °C.
The compound `CCCC(=O)NC(=O)C1c2ccccc2Oc2ccccc21` yielded a melting point of 222 °C.
For `CC=NN(C(=O)c1ccc(C)cc1)c1ccc2c(c1)OCCO2` the value was 121 to 123 °C.
The figure for `CCCN(CCC)Cc1nnc(-c2ncn3c2[C@@H]2CCN2C(=O)c2c(Cl)cccc2-3)o1` is 134 to 136 °C.
Consider `Clc1ccccc1-c1cc(-c2ccccc2)c(-c2ccccc2)s1`, for which the melting point is 103 to 107 °C.
For `CCSc1c2ccccc2c(C=O)c2ccccc12` the value was 74 to 75.5 °C; for `COc1cc(C#N)c2c(c1OC)C(=O)CC2`, 150 °C; for `COc1ccc(CN2CCC(c3cn(Cc4ccoc4)c4cc(F)ccc34)CC2)cc1C(=O)O`, 228 to 229 °C.
On to `CCOC(=O)c1ccc(N2CCN(C)CC2)nn1`, for which the melting point came out at 106 °C.
The figure for `COC(=O)c1ccccc1-c1ccc(CNc2nc(Cl)nc3ccsc23)cc1` is 177 to 182 °C.
For `COc1cccc(N(C)CCNC(C)=O)c1` the value was 69 to 71 °C; for `COc1ccc(C2=NN(CC(=O)Nc3ccc(C4=NNC(=O)CC4C)cc3)C(=O)C3CC=CCC23)cc1OC` (centres undefined), 139 to 141 °C; for `Clc1cccc(-c2n[nH]cc2-c2ccnc(NCc3ccccc3)c2)c1`, 179 to 180 °C.
For `CC(=O)N1CCOc2ccc(C3=NNC(=O)CC3C)cc21` (centres undefined) the value was 186 °C; for `CCn1cc(CC(=O)O)c(OCCCc2ccc(Cc3ccccn3)cc2OC(C)C)n1`, 97 to 98 °C.
In the case of `Clc1ccc2c(c1)C(c1ccccc1Cl)=CCc1nnc(Br)n1-2`, the melting point worked out at 234 °C.
For `COc1ccc(C(=O)Nc2ccccc2)cc1NCc1ccc(O)cc1` the value was 188 to 190 °C.
The figure for `C1=CSC(Sc2ccccc2)(c2ccc(Sc3ccccc3)s2)C1` (centres undefined) is 110 to 112 °C; for `O=C(O)c1ccc2c(c1)S(=O)c1ccccc1C2=O` (centres undefined) it is 295 to 296 °C; for `CCOC(=O)C1Cc2cc(OC)c(OC)cc2C(c2ccccc2)N1C(=O)CNC(=O)OC(C)(C)C` (centres undefined) it is 166 to 167 °C.
